Measurements as given in ChEMBL document CHEMBL1201862, “PubChem BioAssay data set” (2004).
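Assay format: 96-well plates, 48-hour exposure. GI50 = concentration required for 50% inhibition of growth.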 The source made the active and inactive calls. Rule as the data show it: active = GI50 up to about 1.1 µM and inactive = higher.

Columns and labels:
Assay in all cases: NCI tumour cell line growth inhibition, 48 h
HT-29 = system: HT-29
HOP-62 = system: HOP-62
RXF 393 = system: RXF 393
IGROV-1 = system: IGROV-1
SF-268 = system: SF-268
Malme-3M = system: Malme-3M
SN12C = system: SN12C
OVCAR-3 = system: OVCAR-3
SK-OV-3 = system: SK-OV-3
SK-MEL-2 = system: SK-MEL-2
SW-620 = system: SW-620
HOP-92 = system: HOP-92
OVCAR-4 = system: OVCAR-4
RPMI-8226 = system: RPMI-8226

Measured: GI50

O=C(Nc1ccn(CCOC(=O)c2ccccc2)c(=O)n1)c1ccccc1
inactive: HT-29 > 100 µM | HOP-62 > 100 µM | RXF 393 > 100 µM | IGROV-1 > 100 µM | SF-268 > 100 µM | Malme-3M > 100 µM | SN12C > 100 µM | OVCAR-3 > 100 µM | SK-OV-3 > 100 µM | SK-MEL-2 > 100 µM | SW-620 > 100 µM | HOP-92 > 100 µM | OVCAR-4 > 100 µM | RPMI-8226 > 100 µM

CC1OC(CC(=O)O)Cc2c(O)c3c(c(O)c21)C(=O)C=C(C1=CC(=O)c2c(O)c4c(c(O)c2C1=O)CC(CC(=O)O)OC4C)C3=O (centres undefined)
inactive: HT-29 18.5 µM | HOP-62 > 100 µM | RXF 393 6.14 µM | IGROV-1 30.7 µM | SF-268 32 µM | Malme-3M 14.5 µM | SN12C 16.6 µM | OVCAR-3 27 µM | SK-OV-3 > 100 µM | SK-MEL-2 21.2 µM | SW-620 7.4 µM | HOP-92 24.3 µM | OVCAR-4 17.3 µM | RPMI-8226 12.4 µM

O=C1C=C(Nc2ccc(Cl)cc2C(=O)c2ccccc2)c2ccccc2C1=O
inactive: HT-29 > 100 µM | HOP-62 > 100 µM | RXF 393 > 100 µM | IGROV-1 > 100 µM | SF-268 > 100 µM | Malme-3M > 100 µM | SN12C > 100 µM | OVCAR-3 > 100 µM | SK-OV-3 > 100 µM | SK-MEL-2 > 100 µM | SW-620 > 100 µM | OVCAR-4 > 100 µM

CN1CCOC(c2ccccc2)O1 (centres undefined)
inactive: HT-29 > 100 µM | HOP-62 > 100 µM | RXF 393 > 100 µM | IGROV-1 > 100 µM | SF-268 > 100 µM | Malme-3M > 100 µM | SN12C > 100 µM | OVCAR-3 > 100 µM | SK-OV-3 > 100 µM | SK-MEL-2 > 100 µM | SW-620 > 100 µM | HOP-92 > 100 µM | OVCAR-4 > 100 µM | RPMI-8226 > 100 µM

COC(=O)/C(C)=C/[N+](=O)[O-]
inactive: HT-29 20.6 µM | HOP-62 25.4 µM | RXF 393 21.2 µM | IGROV-1 20.9 µM | SF-268 23.1 µM | Malme-3M 17.3 µM | SN12C 20.7 µM | OVCAR-3 16 µM | SK-OV-3 19.2 µM | SK-MEL-2 19.7 µM | SW-620 5.38 µM | HOP-92 9.53 µM | OVCAR-4 17.5 µM | RPMI-8226 2.77 µM

O=C1CC2CC=C[C@H]3c4cc5c(cc4C(=O)N1C23)OCO5 (some centres undefined)
inactive: HT-29 > 50 µM | HOP-62 > 50 µM | RXF 393 > 50 µM | IGROV-1 > 50 µM | SF-268 > 50 µM | Malme-3M > 50 µM | SN12C > 50 µM | OVCAR-3 > 50 µM | SK-OV-3 > 50 µM | SW-620 > 50 µM | RPMI-8226 > 50 µM

Nc1nc(N)c(-c2ccccc2)c(C(=O)Nc2ccc(Cl)c(Cl)c2)n1
inactive: HT-29 > 100 µM | HOP-62 > 100 µM | RXF 393 > 100 µM | IGROV-1 > 100 µM | SF-268 > 100 µM | Malme-3M > 100 µM | SN12C > 100 µM | OVCAR-3 > 100 µM | SK-MEL-2 > 100 µM | SW-620 > 100 µM | HOP-92 > 100 µM | OVCAR-4 > 100 µM | RPMI-8226 46.8 µM

O=C(CCC(=O)Nc1cccc(Cl)c1)CC(=O)c1ccc(Cl)cc1
inactive: HT-29 > 100 µM | HOP-62 > 100 µM | IGROV-1 > 100 µM | SF-268 > 100 µM | Malme-3M > 100 µM | SN12C > 100 µM | OVCAR-3 > 100 µM | SK-OV-3 > 100 µM | SK-MEL-2 > 100 µM | SW-620 > 100 µM | HOP-92 > 100 µM | OVCAR-4 > 100 µM | RPMI-8226 > 100 µM

COc1cc(Br)c(CC2NCCc3cc(OC)c(OC)cc32)cc1OC (centres undefined)
inactive: HT-29 34 µM | HOP-62 > 100 µM | SF-268 > 100 µM | Malme-3M 58.5 µM | SN12C 94.4 µM | OVCAR-3 84.9 µM | SK-OV-3 > 100 µM | SK-MEL-2 > 100 µM | SW-620 > 100 µM | HOP-92 16.5 µM | OVCAR-4 > 100 µM | RPMI-8226 18.8 µM

Cc1cccc(/C=N/C23CC4CC(CC(C4)C2)C3)c1
inactive: HT-29 > 100 µM | HOP-62 > 100 µM | RXF 393 > 100 µM | IGROV-1 > 100 µM | SF-268 > 100 µM | Malme-3M > 100 µM | SN12C > 100 µM | OVCAR-3 > 100 µM | SK-OV-3 > 100 µM | SK-MEL-2 > 100 µM | SW-620 > 100 µM | HOP-92 > 100 µM | OVCAR-4 > 100 µM | RPMI-8226 > 100 µM

O=c1ccc2ccccc2c2ccccc12
inactive: HT-29 2.93 µM | HOP-62 3.24 µM | IGROV-1 6.12 µM | SF-268 2.79 µM | Malme-3M 10.4 µM | SN12C 2.46 µM | OVCAR-3 3.4 µM | SK-OV-3 3.6 µM | SK-MEL-2 3.43 µM | SW-620 3.3 µM | OVCAR-4 8.07 µM | RPMI-8226 2.23 µM

Cc1ccc(NC(=O)SCCC(=O)O)cc1
inactive: HT-29 > 100 µM | HOP-62 > 100 µM | RXF 393 > 100 µM | IGROV-1 47.4 µM | SF-268 17.2 µM | SN12C > 100 µM | OVCAR-3 > 100 µM | SK-MEL-2 > 100 µM | SW-620 > 100 µM | OVCAR-4 > 100 µM | RPMI-8226 > 100 µM

O=c1c2ccccc2nc(-c2cccc(Cl)c2)n1NC1OC(CO)C(O)C(O)C1O (centres undefined)
inactive: HT-29 > 100 µM | HOP-62 > 100 µM | IGROV-1 > 100 µM | SF-268 > 100 µM | Malme-3M > 100 µM | SN12C > 100 µM | OVCAR-3 > 100 µM | SK-OV-3 > 100 µM | SK-MEL-2 > 100 µM | SW-620 > 100 µM | HOP-92 > 100 µM | OVCAR-4 > 100 µM | RPMI-8226 > 100 µM

COc1ccccc1NS(=O)(=O)c1cc(C(C)(C)C)ccc1OCCOc1ccc(C(C)(C)C)cc1S(=O)(=O)Nc1ccccc1OC
inactive: HT-29 > 100 µM | HOP-62 > 100 µM | RXF 393 > 100 µM | IGROV-1 > 100 µM | SF-268 > 100 µM | Malme-3M > 100 µM | SN12C > 100 µM | OVCAR-3 > 100 µM | SK-OV-3 > 100 µM | SK-MEL-2 > 100 µM | SW-620 > 100 µM | HOP-92 > 100 µM | OVCAR-4 > 100 µM | RPMI-8226 > 100 µM

COc1ccc(C2CC(C)=Nc3c(O)nc(S)nc3N2)cc1 (centres undefined)
inactive: HT-29 28.5 µM | HOP-62 25.4 µM | RXF 393 18.8 µM | IGROV-1 18.8 µM | SF-268 37.7 µM | Malme-3M > 100 µM | SN12C 19.4 µM | OVCAR-3 22.4 µM | SK-OV-3 18.1 µM | SK-MEL-2 63.8 µM | SW-620 5.27 µM | HOP-92 > 100 µM | RPMI-8226 22.3 µM

Cc1cccc(NC(=O)C(=O)Cc2nc3ccccc3nc2O)c1C
inactive: HT-29 > 100 µM | HOP-62 > 100 µM | RXF 393 > 100 µM | IGROV-1 > 100 µM | SF-268 > 100 µM | Malme-3M > 100 µM | SN12C > 100 µM | OVCAR-3 > 100 µM | SK-OV-3 > 100 µM | SW-620 > 100 µM | HOP-92 > 100 µM | OVCAR-4 > 100 µM

O=c1[nH]c(=O)n(C2CC(O)C(CO)O2)cc1C#Cc1ccc(C(F)(F)F)cc1 (centres undefined)
inactive: HT-29 > 100 µM | HOP-62 > 100 µM | RXF 393 > 100 µM | IGROV-1 > 100 µM | SF-268 > 100 µM | Malme-3M > 100 µM | SN12C > 100 µM | OVCAR-3 > 100 µM | SK-OV-3 > 100 µM | SK-MEL-2 > 100 µM | SW-620 > 100 µM | HOP-92 23.9 µM | OVCAR-4 > 100 µM | RPMI-8226 > 100 µM

CCOC(=O)[C@@]12C(C)=CC(=O)O[C@]1(C)C[C@H]2C#N
inactive: HT-29 > 100 µM | HOP-62 > 100 µM | RXF 393 > 100 µM | IGROV-1 > 100 µM | SF-268 > 100 µM | Malme-3M > 100 µM | SN12C > 100 µM | OVCAR-3 > 100 µM | SK-OV-3 > 100 µM | SK-MEL-2 > 100 µM | SW-620 > 100 µM | HOP-92 > 100 µM | OVCAR-4 > 100 µM | RPMI-8226 > 100 µM

C[C@]12CCC(=O)C=C1CC[C@@H]1C2CC[C@]2(C)Nc3[nH]ncc3CC12 (some centres undefined)
inactive: HT-29 > 100 µM | HOP-62 > 100 µM | RXF 393 > 100 µM | IGROV-1 > 100 µM | Malme-3M > 100 µM | OVCAR-3 > 100 µM | SK-OV-3 > 100 µM | SK-MEL-2 > 100 µM | SW-620 > 100 µM | OVCAR-4 > 100 µM | RPMI-8226 > 100 µM

CN(C)CCN(C)CC1COC(C)(C)O1 (centres undefined)
inactive: HT-29 > 100 µM | HOP-62 > 100 µM | RXF 393 > 100 µM | IGROV-1 > 100 µM | SF-268 > 100 µM | Malme-3M > 100 µM | SN12C > 100 µM | OVCAR-3 > 100 µM | SK-OV-3 > 100 µM | SK-MEL-2 > 100 µM | SW-620 > 100 µM | HOP-92 > 100 µM | OVCAR-4 > 100 µM | RPMI-8226 > 100 µM
